# According to patent US20070271620A1, “Animal model for type II diabetes mellitus and Syndrome X and methods and uses thereof” (priority 2005, published 2007):
# Several values for one entry are separate records, joined by “and”; a condition that tells them apart may be missing. Equal values may be shown once.
# Columns and labels:
# Format in all cases: in vivo, pig
# diabetic pigs = experiment: Plasma insulin response after a standard meal in diabetic pigs two and nine weeks after STZ infusion; conditions: STZ 140 mg/kg infused for ten minutes, 25 diabetic pigs
# Experimental: After 24 hours fasting, a standard meal (523 kJ ME/kg BW^0.75) was fed to the pigs and blood was sampled up to 480 minutes after feeding). Pigs were studied two and nine weeks after streptozotocin (STZ) infusion (140 mg/kg for ten minutes). […] However, as judged by the severity of diabetes (quantified by the 24-hour urinary glucose excretion in relation to standard meal feeding), the recovery/regeneration/hypertrophy of beta-cells takes place in the first three to four weeks after STZ infusion and stops after that time period (see FIG. 6).
# [1] = test system: cross-bred pigs (Yorkshire×Landrace); experiment: 6,6-2H-glucose tracer kinetics (fasting Ra glucose, hepatic glucose production, whole body glucose uptake) in STZ diabetic pigs; conditions: 130 mg STZ/kg
# Experimental: Protocol 1: fasting hepatic glucose production and whole body glucose uptake were studied with 6,6-^2H-glucose infusion in five normal and five STZ (130 mg/kg) diabetic pigs.
# Protocol 2: insulin-mediated hepatic glucose production and whole body glucose uptake were studied with the hyperinsulinemic (1 or 2 mU/kg/minute) euglycemic clamp technique in combination with 6,6-^2H-glucose infusion in six normal and seven STZ (130 mg/kg) diabetic pigs.
# After overnight fasting, a 6,6-^2H-glucose solution was administered as a prime—(72 mg) continuous (1.2 mg/minute) infusion for three hours in normal pigs. In diabetic pigs, 6,6-^2H-glucose was given as an adjusted prime— (216 mg) continuous (3.6 mg/minute) infusion for three hours (Koopmans et al., 1991). Isotopic steady-state conditions were achieved within 90 minutes after initiation of the tracer infusion and steady-state calculations were carried out during the last hour of the tracer infusion (t=120, 135, 150, 165 and 180 minutes). […]
# Blood samples for determination of 6,6-^2H-glucose enrichment, glucose and insulin were collected in heparinized tubes (150 USP. U. Lithium Heparin, 10 mL Venoject, Terumo, Leuven, Belgium) and immediately chilled at 0° C. on ice and centrifuged at 4° C. for ten minutes at 3000 rpm. […] Selected ion monitoring, data acquisition and quantitative calculations were performed using the HP Chemstation software. Glucose concentration was determined using the internal standard method (xylose was added as internal standard). The internal standard was monitored at m/z 145. Glucose was monitored at m/z 187 for glucose and m/z 189 for d2-glucose. Glucose enrichments were calculated by dividing the area of the m/z 189 peak and the m/z 187 peak and correcting for natural enrichments. Isotopic enrichment was calculated as tracer-to-tracee ratio after subtracting the isotopic enrichment of a background plasma sample. An aliquot of the 6,6-^2H-glucose infusate was analyzed for the isotope concentration to calculate the actual infusion rate for each infusion experiment. […]
# [2] = test system: cross-bred pigs (Yorkshire×Landrace); experiment: Fasting and postprandial plasma lipid profiles and postprandial insulin in STZ diabetic pigs
# Experimental: Fasting blood samples were taken before the start of hyperinsulinemic clamp experiments and postprandial blood samples were taken two to three hours after a morning meal in the week following a clamp study.
# Blood samples for determination of triglycerides and non-esterified fatty acids (NEFA) were collected in tubes containing EDTA (0.47 mol/L EDTA, 10 mL Venoject, Terumo, Leuven, Belgium) and immediately chilled at 0° C. on ice, and centrifuged at 4° C. for ten minutes at 3000 rpm. Plasma was stored, at −20° C. in four aliquots of 0.5 mL for further analyses.
# Concentrations of triglycerides, cholesterol and NEFA were measured using commercially available test kits (Boehringer Mannheim, Mannheim Germany; Human, Wiesbaden, Germany; and Wako Chemicals, Neuss, Germany, respectively).
# [3] = pigs, STZ 130 mg/kg, two to three hours after morning meal
compound,measurement,setting,value
"CN(N=O)C(=O)N[C@H]1C(O)O[C@H](CO)[C@@H](O)[C@@H]1O (mixture of isomers) [STZ, streptozotocin]","Area under the curve for the plasma insulin response (0-480 minutes after meal), nine weeks compared to two weeks after STZ infusion",diabetic pigs,two-fold larger
same,Fasting Ra glucose compared to normal pigs,[1],approximately two-fold greater
same,Insulin-inhibited hepatic glucose production versus normal pigs,[1],two-fold greater
same,Insulin-stimulated whole body glucose uptake versus normal pigs,[1],three-fold lower
same,Postprandial plasma insulin,"[2]; STZ diabetic pigs, two to three hours after feeding, detection limit",~1 mU/L
same,Fasting cholesterol and NEFA concentrations compared to normal pigs,"[2]; pigs, STZ 130 mg/kg",did not differ
same,Fasting plasma NEFA,"[2]; pigs, STZ 130 mg/kg",0.9 ± 0.3 mmol/L
same,Fasting plasma cholesterol,"[2]; pigs, STZ 130 mg/kg",2.1 ± 0.2 mmol/L
same,Fasting plasma triglyceride elevation compared to normal pigs,"[2]; pigs, STZ 130 mg/kg",five-fold
same,Fasting plasma triglycerides,"[2]; pigs, STZ 130 mg/kg",1.0 mmol/L and 1.0 ± 0.3 mmol/L
same,Postprandial plasma NEFA elevation compared to normal pigs,"[2]; pigs, STZ 130 mg/kg",seven-fold
same,Postprandial plasma cholesterol elevation compared to normal pigs,"[2]; pigs, STZ 130 mg/kg",1.3 fold
same,Postprandial plasma triglycerides elevation compared to normal pigs,"[2]; pigs, STZ 130 mg/kg",four-fold
same,Postprandial plasma NEFA,[2]; [3],1.5 ± 0.5 mmol/L
same,Postprandial plasma cholesterol,[2]; [3],2.3 ± 0.2 mmol/L
same,Postprandial plasma trigylcerides,[2]; [3],1.2 mmol/L and 1.2 ± 0.3 mmol/L
